The text below walks through data of patent publication US20220056043A1, “NITROGEN-CONTAINING FUSED CYCLIC COMPOUND, PREPARATION METHOD THEREFOR AND USE THEREOF” (SICHUAN KELUN-BIOTECH BIOPHARMACEUTICAL CO., LTD., priority 2019, published 2022).

In one test the target is T1, hTLR8 (Homo sapiens, UniProt Q9NR97).
T1 construct: host or cells: HEK-Blue hTLR8 cells
T1 sequence (Q9NR97 27-1041): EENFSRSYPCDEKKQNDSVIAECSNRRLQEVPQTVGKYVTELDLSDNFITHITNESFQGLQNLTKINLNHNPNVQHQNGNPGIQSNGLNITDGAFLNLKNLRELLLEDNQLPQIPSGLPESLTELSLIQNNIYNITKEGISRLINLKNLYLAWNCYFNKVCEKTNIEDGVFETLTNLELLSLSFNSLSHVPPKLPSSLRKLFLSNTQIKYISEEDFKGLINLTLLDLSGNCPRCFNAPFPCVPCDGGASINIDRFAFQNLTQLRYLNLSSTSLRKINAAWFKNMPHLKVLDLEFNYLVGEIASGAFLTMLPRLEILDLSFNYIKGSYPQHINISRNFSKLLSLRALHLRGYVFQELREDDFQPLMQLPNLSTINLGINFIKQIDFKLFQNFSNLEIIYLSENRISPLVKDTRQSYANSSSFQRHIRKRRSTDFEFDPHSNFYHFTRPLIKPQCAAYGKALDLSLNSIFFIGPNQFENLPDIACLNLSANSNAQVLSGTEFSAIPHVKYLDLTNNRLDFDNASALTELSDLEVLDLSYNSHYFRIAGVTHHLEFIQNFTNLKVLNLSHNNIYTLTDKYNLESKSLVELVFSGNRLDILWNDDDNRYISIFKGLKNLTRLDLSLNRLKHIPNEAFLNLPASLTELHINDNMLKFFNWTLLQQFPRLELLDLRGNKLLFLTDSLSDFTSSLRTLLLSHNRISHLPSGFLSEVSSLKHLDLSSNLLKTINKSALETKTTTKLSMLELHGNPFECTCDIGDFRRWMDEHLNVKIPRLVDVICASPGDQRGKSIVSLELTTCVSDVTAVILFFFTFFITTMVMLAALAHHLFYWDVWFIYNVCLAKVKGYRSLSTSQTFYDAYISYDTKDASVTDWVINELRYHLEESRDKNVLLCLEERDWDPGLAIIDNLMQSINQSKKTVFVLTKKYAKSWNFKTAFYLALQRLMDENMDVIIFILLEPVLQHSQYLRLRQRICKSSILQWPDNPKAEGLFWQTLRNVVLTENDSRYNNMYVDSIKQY
Description: Agonistic effect on hTLR8, HEK-Blue hTLR8 cells, alkaline phosphatase secretion. The format is cell-based. The note with it: 16 hours. In outline:
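HEK-Blue hTLR8 reporter cells were treated with compound (diluted from 10 mM DMSO stock) for 16 h at 37 °C in DMEM/10% FBS. Secreted alkaline phosphatase in supernatant was detected with QUANTI-Blue after 3 h at 37 °C, read at OD620. EC50 came from a four-parameter variable-slope fit.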

For the next test, the target named is T2, hNLRP3 inflammasome (Homo sapiens, UniProt Q96P20).
T2 construct: endogenous in cells; host or cells: THP-1 cells, PMA-differentiated
Briefly: Agonistic effect on the expression of IL-1β in THP-1 cells after PMA-induced differentiation (HTRF). The conditions noted are these: IL-1β level, PMA-differentiated THP-1 cells, 6 hours. The class given is cell-based. The procedure, abridged:
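THP-1 cells differentiated with 1 μM PMA for 24 h, then replated at 1×10^5 cells/well in RPMI 1640 with 2% FBS. Compounds added for 6 h at 37 °C, 5% CO2. Supernatant IL-1β measured by HTRF; EC50 from four-parameter variable-slope fit.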

Structures are written as SMILES.

T2 sequence (Q96P20 whole entry): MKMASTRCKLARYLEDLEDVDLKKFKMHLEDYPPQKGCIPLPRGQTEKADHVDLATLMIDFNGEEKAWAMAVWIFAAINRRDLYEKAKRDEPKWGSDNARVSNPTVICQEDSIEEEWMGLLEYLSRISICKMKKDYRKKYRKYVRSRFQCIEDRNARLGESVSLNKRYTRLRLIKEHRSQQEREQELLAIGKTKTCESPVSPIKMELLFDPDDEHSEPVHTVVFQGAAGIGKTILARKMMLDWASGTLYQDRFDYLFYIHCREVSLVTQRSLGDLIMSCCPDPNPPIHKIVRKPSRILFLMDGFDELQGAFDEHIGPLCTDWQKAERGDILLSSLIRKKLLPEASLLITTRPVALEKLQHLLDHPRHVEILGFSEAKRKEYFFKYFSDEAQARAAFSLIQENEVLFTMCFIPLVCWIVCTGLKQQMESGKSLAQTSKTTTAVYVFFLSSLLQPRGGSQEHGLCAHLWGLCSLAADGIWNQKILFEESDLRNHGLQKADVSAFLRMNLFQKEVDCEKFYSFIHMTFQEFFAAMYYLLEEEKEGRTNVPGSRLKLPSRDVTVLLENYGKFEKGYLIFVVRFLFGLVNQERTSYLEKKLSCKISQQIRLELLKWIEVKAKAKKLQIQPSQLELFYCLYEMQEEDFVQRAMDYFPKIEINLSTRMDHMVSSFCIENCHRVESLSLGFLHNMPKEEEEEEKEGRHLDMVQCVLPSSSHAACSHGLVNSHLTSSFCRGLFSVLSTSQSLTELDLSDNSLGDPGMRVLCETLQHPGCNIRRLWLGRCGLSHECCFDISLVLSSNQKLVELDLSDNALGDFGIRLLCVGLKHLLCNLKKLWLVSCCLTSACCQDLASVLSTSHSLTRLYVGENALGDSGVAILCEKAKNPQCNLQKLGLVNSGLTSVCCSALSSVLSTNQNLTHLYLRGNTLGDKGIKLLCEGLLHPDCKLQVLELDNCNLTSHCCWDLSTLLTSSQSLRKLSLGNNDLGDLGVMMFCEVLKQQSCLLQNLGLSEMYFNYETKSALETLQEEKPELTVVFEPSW

For orientation: EC50 means the concentration needed to bring the measured effect to its halfway point. Higher therefore signals a need for much substance. On to `CC(C)(O)CNc1cc(N)nc2cc(-c3ccn[nH]3)sc12` [Compound 28, (1-(5-amino-2-(1H-pyrazol-5-yl)thieno[3,2-b]pyridin-7-yl)amino)-2-methyl-2-propanol], for which the EC50 on hTLR8 is greater than 100000 nM; on hNLRP3 inflammasome, 0.54 µM.

For the compound `C[C@@H](O)CNc1cc(N)nc2cc(-c3ccn[nH]3)sc12` [Compound 29], the EC50 at hTLR8 is greater than 100000 nM; at hNLRP3 inflammasome, 0.16 µM.

Take `Nc1cc(N[C@@H]2CC[C@@H](O)C2)c2sc(-c3ccn[nH]3)cc2n1` [Compound 30, (1R,3R)-3-((5-amino-2-(1H-pyrazol-5-yl)thieno[3,2-b]pyridin-7-yl)amino)cyclopentanol]: the EC50 was greater than 100000 nM on hTLR8 and 0.03 µM at hNLRP3 inflammasome.

For the compound `Nc1cc(NC(CCO)c2ccccc2)c2sc(-c3ccn[nH]3)cc2n1` (stereo not shown) [Compound 123, 3-((5-amino-2-(1H-pyrazol-5-yl)thieno[3,2-b]pyridin-7-yl)amino)-3-phenyl-1-propanol], the values for the concentration for a half-maximal effect (EC50) on hTLR8 and on hNLRP3 inflammasome were greater than 100000 nM and 0.1 µM, respectively.

With `C[C@@H]1CN(CCNc2cc(N)nc3cc(-c4ccn[nH]4)sc23)C[C@@H](C)O1` [Compound 124, N^7-(2-((2R,6R)-2,6-dimethylmorpholino)ethyl)-2-(1H-pyrazol-5-yl)thieno[3,2-b]pyridine-5,7-diamine], the EC50 on hTLR8 was greater than 100000 nM; on hNLRP3 inflammasome, 0.05 µM.

Take `C[C@@H](CCO)Nc1cc(N)nc2cc(-c3ccn[nH]3)sc12` [Compound 125, (S)-3-((5-amino-2-(1H-pyrazol-5-yl)thieno[3,2-b]pyridin-7-yl)amino)butanol]: the EC50 was greater than 100000 nM on hTLR8 and 0.03 µM at hNLRP3 inflammasome.

As to `Nc1cc(NCC2CCC2)c2sc(-c3ccn[nH]3)cc2n1` [Compound 126, N^7-(cyclobutylmethyl)-2-(1H-pyrazol-5-yl)thieno[3,2-b]pyridine-5,7-diamine], the values for the EC50 on hTLR8 and at hNLRP3 inflammasome were greater than 100000 nM and 0.35 µM, respectively.

With `CN(CCCO)c1cc(N)nc2cc(-c3ccn[nH]3)sc12` [Compound 127, 3-((5-amino-2-(1H-pyrazol-5-yl)thieno[3,2-b]pyridin-7-yl)(methyl)amino)-1-propanol], the EC50 on hTLR8 is greater than 100000 nM; at hNLRP3 inflammasome, 0.11 µM.

Regarding `C[C@H]1CC[C@H](Nc2cc(N)nc3cc(-c4ccn[nH]4)sc23)CC1` [Compound 128, N^7-((1R,4R)-4-methylcyclohexyl)-2-(1H-pyrazol-5-yl)thieno[3,2-b]pyridine-5,7-diamine], the concentration for a half-maximal effect (EC50) is greater than 100000 nM at hTLR8 and 0.11 µM on hNLRP3 inflammasome.

`C[C@]1(O)C[C@@H](Nc2cc(N)nc3cc(-c4ccn[nH]4)sc23)C1` [Compound 129, (1s,3s)-3-((5-amino-2-(1H-pyrazol-5-yl)thieno[3,2-b]pyridin-7-yl)amino)-1-methylcyclobutanol]: the EC50 at hTLR8 is greater than 100000 nM; on hNLRP3 inflammasome, 0.03 µM.

Turning to `C[C@H](Nc1cc(N)nc2cc(-c3ccn[nH]3)sc12)c1cccc(C(F)(F)F)c1` [Compound 131, (S)-2-(1H-pyrazol-5-yl)-N^7-(1-(3-(trifluoromethyl)phenyl)ethyl)thieno[3,2-b]pyridine-5,7-diamine], the values for the EC50 at hTLR8 and at hNLRP3 inflammasome were greater than 100000 nM and 0.06 µM, respectively.

As to `CC[C@@H](CO)Nc1cc(N)nc2cc(-c3ccn[nH]3)sc12` [Compound 132, (S)-2-((5-amino-2-(1H-pyrazol-5-yl)thieno[3,2-b]pyridin-7-yl)amino)-1-butanol], the EC50 at hTLR8 was greater than 100000 nM; at hNLRP3 inflammasome it was 3.48 µM.

Consider `COC[C@@H](C)Nc1cc(N)nc2cc(-c3ccn[nH]3)sc12` [Compound 133, (R)—N^7-(1-methoxyprop-2-yl)-2-(1H-pyrazol-5-yl)thieno[3,2-b]pyridine-5,7-diamine], for which the values for the concentration for a half-maximal effect (EC50) on hTLR8 and at hNLRP3 inflammasome were greater than 100000 nM and 0.58 µM, respectively.

Turning to `Cc1cccnc1CNc1cc(N)nc2cc(-c3ccn[nH]3)sc12` [Compound 134, N^7-((3-methylpyridin-2-yl)methyl)-2-(1H-pyrazol-5-yl)thieno[3,2-b]pyridine-5,7-diamine], the values for the EC50 on hTLR8 and at hNLRP3 inflammasome were greater than 100000 nM and 0.03 µM, respectively.

Take `Nc1cc(NCCN2CCCC2=O)c2sc(-c3ccn[nH]3)cc2n1` [Compound 135, 1-(2-((5-amino-2-(1H-pyrazol-5-yl)thieno[3,2-b]pyridin-7-yl)amino)ethyl)pyrrolidin-2-one]: the values for the EC50 at hTLR8 and on hNLRP3 inflammasome were greater than 100000 nM and 0.32 µM, respectively.

As for `Nc1cc(NCC(CO)CO)c2sc(-c3ccn[nH]3)cc2n1` [Compound 136], the EC50 was greater than 100000 nM at hTLR8 and 0.05 µM on hNLRP3 inflammasome.

For `CNC(=O)CNc1cc(N)nc2cc(-c3ccn[nH]3)sc12` [Compound 137, 2-((5-amino-2-(1H-pyrazol-5-yl)thieno[3,2-b]pyridin-7-yl)amino)-N-methylacetamide], the concentration for a half-maximal effect (EC50) at hTLR8 is greater than 100000 nM; at hNLRP3 inflammasome, 0.95 µM.

With `Nc1cc(NCC(=O)NC2CC2)c2sc(-c3ccn[nH]3)cc2n1` [Compound 138, 2-((5-amino-2-(1H-pyrazol-5-yl)thieno[3,2-b]pyridin-7-yl)amino)-N-cyclopropylacetamide], the values for the half-maximal effective concentration (EC50) at hTLR8 and on hNLRP3 inflammasome were greater than 100000 nM and 0.2 µM, respectively.

Consider `CN(CCO)c1cc(N)nc2cc(-c3ccn[nH]3)sc12` [Compound 139, 2-((5-amino-2-(1H-pyrazol-5-yl)thieno[3,2-b]pyridin-7-yl)(methyl)amino)ethanol], for which the EC50 at hTLR8 is greater than 100000 nM; on hNLRP3 inflammasome, 0.07 µM.

Take `CCN(CCNc1cc(N)nc2cc(-c3ccn[nH]3)sc12)C(=O)Cc1cccc(C)c1` [Compound 140, N-(2-((5-amino-2-(1H-pyrazol-5-yl)thieno[3,2-b]pyridin-7-yl)amino)ethyl)-N-ethyl-2-(m-tolyl)acetamide]: the EC50 on hTLR8 was greater than 100000 nM; on hNLRP3 inflammasome, 0.5 µM.

For `CC(C)CNc1cc(N)nc2cc(-c3ccn[nH]3)sc12` [Compound 141, N^7-isobutyl-2-(1H-pyrazol-5-yl)thieno[3,2-b]pyridin-5,7-diamine], the EC50 was greater than 100000 nM on hTLR8 and 0.03 µM at hNLRP3 inflammasome.

Turning to `Nc1cc(N[C@H]2[C@@H]3CNC[C@@H]32)c2sc(-c3ccn[nH]3)cc2n1` [Compound 142, N^7-((1R,5S,6S)-3-azabicyclo[3.1.0]hex-6-yl)-2-(1H-pyrazol-5-yl)thieno[3,2-b]pyridin-5,7-diamine], the half-maximal effective concentration (EC50) was greater than 100000 nM on hTLR8 and 0.14 µM at hNLRP3 inflammasome.

As to `Nc1cc(NC2CCC(F)(F)CC2)c2sc(-c3ccn[nH]3)cc2n1` [Compound 143, N^7-(4,4-difluorocyclohexyl)-2-(1H-pyrazol-5-yl)thieno[3,2-b]pyridin-5,7-diamine], the EC50 at hTLR8 is greater than 100000 nM; on hNLRP3 inflammasome, 0.08 µM.

Regarding `CC(C)C[C@H](CO)Nc1cc(N)nc2cc(-c3ccn[nH]3)sc12` [Compound 144, (R)-2-((5-amino-2-(1H-pyrazol-5-yl)thieno[3,2-b]pyridin-7-yl)amino)-4-methyl-1-pentanol], the EC50 was greater than 100000 nM at hTLR8 and 0.38 µM on hNLRP3 inflammasome.

In the case of `CCC(=O)N(CC)CCNc1cc(N)nc2cc(-c3ccn[nH]3)sc12` [Compound 145, N-(2-((5-amino-2-(1H-pyrazol-5-yl)thieno[3,2-b]pyridin-7-yl)amino)ethyl)-N-ethylpropionamide], the EC50 on hTLR8 is greater than 100000 nM; on hNLRP3 inflammasome it was 0.31 µM.

Take `CCN(CCNc1cc(N)nc2cc(-c3ccn[nH]3)sc12)C(=O)C1CC1` [Compound 146, N-(2-((5-amino-2-(1H-pyrazol-5-yl)thieno[3,2-b]pyridin-7-yl)amino)ethyl)-N-ethylcyclopropyl formamide]: the EC50 on hTLR8 was greater than 100000 nM; at hNLRP3 inflammasome, 0.29 µM.
